One experiment addresses T1, 5-HT1A receptor (Mus musculus, UniProt Q64264).
T1 construct: Fresh cryostat sections (12 μm) from wild-type, p11 KO and p11 transgenic mice; from tissue; host or cells: mouse brain cryostat sections
T1 sequence (Q64264 1-421): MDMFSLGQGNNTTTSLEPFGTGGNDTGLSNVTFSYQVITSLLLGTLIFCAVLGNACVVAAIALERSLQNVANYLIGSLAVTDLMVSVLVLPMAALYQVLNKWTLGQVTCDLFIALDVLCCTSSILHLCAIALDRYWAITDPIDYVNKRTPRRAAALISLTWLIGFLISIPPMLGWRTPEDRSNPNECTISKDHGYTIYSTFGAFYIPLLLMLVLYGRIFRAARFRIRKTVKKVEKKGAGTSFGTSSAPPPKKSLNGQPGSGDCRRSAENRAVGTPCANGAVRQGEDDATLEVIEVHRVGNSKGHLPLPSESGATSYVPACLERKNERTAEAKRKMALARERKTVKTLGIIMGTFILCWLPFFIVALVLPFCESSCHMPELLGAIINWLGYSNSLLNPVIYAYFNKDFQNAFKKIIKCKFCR
In words: [35S]GTPγS binding in response to 5-HT1A receptor stimulation. It is filed as biochemical, mice. As to conditions: 50 μM agonist. As for the experimental part:
(§1) Fresh cryostat sections (12 μm) from wild-type, p11 KO and p11 transgenic mice are preincubated for 30 min in Tris-HCl 50 mM (pH 7.4) supplemented with 100 mM NaCl, […] 3 mM MgCl2, 0.2 mM EGTA, 2 mM GDP and 1 U/ml adenosine deaminase to remove endogenous adenosine. The sections are thereafter incubated for two hours at 25° C. in the same solution containing 40 pM [^35S]GTP S, with (stimulation condition) or without (basal condition) 50 μM of the 5-HT1A receptor agonist, 8-OH-DPAT, or the 5-HT1B receptor agonist, anpirtoline. Non-specific labeling (background) is determined on autoradiographs from adjacent sections incubated with 10 μM of unlabeled GTP S. Sections are rinsed twice (3 min each) in 50 mM Tris-HCl buffer, once (30 sec) in distilled water to remove the buffer salts, and air-dried. The autoradiographs are obtained by 2-4 days exposure on Biomax MR film. Optical density measurements are obtained in several brain regions with the NIH Image 1.63 image analysis system.
(GTPγS is a poorly hydrolysed GTP analogue; its binding reports G protein activation.)

A further experiment concerns p11 mRNA. As to conditions: mice, 14 day treatment, once daily i.p., killed 1 hour after last injection.
The subject of a further experiment is AMPA receptors. The experiment can be described thus: Electrophysiology, fEPSP/PS in nucleus accumbens slices, CNQX. More on the design: species or system mice. As to conditions: 15 min after CNQX. As for the experimental part:
(§2) Male p11 KO and wild-type mice (4-7 weeks old) are decapitated under fluorothane anesthesia. Their brains are rapidly removed and coronal brain slices (400 μm thick), containing the nucleus accumbens, are prepared with a microslicer. Slices are incubated, for at least 1 h, at 32° C. in oxygenated (95% O2+5% CO2) artificial cerebrospinal fluid (aCSF) containing (in mM): 126 NaCl, 2.5 KCl, 1.2 NaH2PO4, 1.3 MgCl2, 2.4 CaCl2, 10 glucose and 26 NaHCO3, pH 7.4. Slices are transferred to a recording chamber mounted on an upright microscope and are continuously perfused with oxygenated aCSF at 28° C. Extracellular field potentials are recorded using a glass micropipette filled with aCSF positioned on the slice surface in the nucleus accumbens. Signals are amplified 500 times via an Axopatch 200B amplifier acquired at 10 kHz, filtered at 2 kHz and recorded on a Computer using acquisition and pClamp9 data analysis software. Synaptic responses are evoked with a concentric bipolar stimulating electrode placed near the recording electrode on the surface of the slice. […] Single stimuli (0.1 ms duration) are applied every 15 sec at an intensity yielding 50-70% maximal response as assessed by a stimulus/response curve established for each slice examined by measuring the amplitude of the field potential evoked by increasing stimulus intensities. […] Numerical values are expressed as means […]SEM. […]

Experiment [1] concerns the target T2, 5-HT1B receptor (Mus musculus, UniProt P28334). In words: Quantitative receptor autoradiography, [125I]cyanopindolol binding and serotonin displacement. More on the design: Cryostat sections (12 μm thick) are made from p11 KO and wild-type mice; from tissue; host or cells: mouse brain cryostat sections (globus pallidus, substantia nigra); wild-type, p11 KO and p11 transgenic mice; species or system mice.
Experimental: Cryostat sections (12 μm thick) are made from p11 KO and wild-type mice. 5-HT1B receptors are detected by incubating the sections in 170 mM Tris/150 mM NaCl pH 7.4 (25° C.) containing the antagonist [^125I]cyanopindolol (0.3, 1, 3, 10, 30, 100 pM; 2200 Ci/mmol), 100 nM 8-OH-DPAT as a 5-HT1A blocker, and 30 μM isoproterenol, as β-adrenergic receptor blocker, for two hours (S9). Non-specific binding is determined by measurements in the presence of 100 μM serotonin. In displacement experiments, increasing concentrations of serotonin (0, 0.3, 1, 3, 10, 30, 100, 300, 1000, 10000 nM) are incubated with 10 pM [^125I]cyanopindolol as described above. […] At the end of all autoradiographic experiments, sections are rinsed 2×5 min in their corresponding cold binding buffers, dipped in distilled water at 4° C. and dried under cold air. The sections are apposed to Biomax MR films for 3-5 days ([^125I]cyanopindolol) or 4-10 weeks ([^3H]GR125743, [^3H]8-OHDPAT, ^3H]SCH23390, [^3H]raclopride) together with ^[125I] or [^3H] microscales. Optical density measurements are obtained in several brain regions with the NIH Image 1.63 image analysis system. Specific binding is calculated by digital subtraction of nonspecific labeling from total binding. Standard curves generated from [^3H] or [^125I] microscales are used to convert optical densities into femtomoles per milligram of protein. Data obtained from saturation and displacement experiments are analyzed using non-linear regression equations.

The target of experiment [2] is T2, 5-HT1B receptor. In words: [35S]GTPγS binding in response to 5-HT1B receptor stimulation. Format: biochemical. Details: Cryostat sections (12 μm thick) are made from p11 KO and wild-type mice; from tissue; host or cells: mouse brain cryostat sections (globus pallidus, substantia nigra); wild-type, p11 KO and p11 transgenic mice. As to conditions: p11 KO mice, 50 μM agonist. The method, then:
as §1

The next experiment relates to phospho-Ser9-synapsin I. The experiment can be described thus: Western blotting of phosphorylated synapsin I in brain slices. Format: cell-based. As to conditions: striatal slices from p11 KO mice, 50 μM, 2 min. The method, then:
Slices (300 μm) from the striatum are prepared from wild-type and p11 KO mice as described (S10). The slices are preincubated in Krebs buffer (118 mM NaCl/4.7 mM KCl/1.5 mM […]/1.2 mM KH2PO4/25 mM NaHCO3/11.7 mM glucose/1.3 mM CaCl2) at 30° C. under constant oxygenation (95% O2/5% CO2) for 60 min, with a change of buffer after […]. Slices are treated with vehicle or anpirtoline (50 μM) for 2 min. After drug treatment, the buffer is removed, the slices are rapidly frozen on dry ice, sonicated in 1% SDS and boiled for 10 min. Small aliquots of the homogenate are retained for protein determination by the bicinchoninic acid protein assay method. Equal amounts of protein are processed by using 10% acrylamide gels. Immunoblotting is carried out with a phosphorylation-state-specific rabbit polyclonal antibody against phospho-Ser9-synapsin I, a site that is phosphorylated by PKA and CamKII, or a rabbit polyclonal synapsin antibody that is not phosphorylation-state-specific. Antibody binding is detected by enhanced chemiluminescence and quantified by densitometry, using National Institutes of Health IMAGE 1.63 software. The level of the phosphorylated form of synapsin is normalized to its total level. All data are presented as normalized levels.

In another experiment the test system is thigmotaxis. In words: Open-field analysis (thigmotaxis). Format: in vivo. As to conditions: wild-type mice treated long-term with imipramine; anpirtoline 5 mg/kg i.p., 15 min postinjection. As for the experimental part: Horizontal activities are measured for 30 minutes (results are analyzed every 5 min period) during daytime in a fully computerized, multicage, red and infrared-sensitive motion detection system. The peripheral activity values are divided […] by the total horizontal activity values to determine thigmotaxis. In experiments with anpirtoline (5 mg/kg, i.p.) animals are tested 15 min postinjection. Some anpirtolinetreated mice had received daily injections with imipramine (10 mg/kg, i.p.) for 4 weeks until the day before the experiment.

In a further experiment the test system is immobility. The experiment can be described thus: Tail suspension test. Format: in vivo. The note with it: p11 KO mice compared with wild-type mice after acute treatment, 15 minutes postinjection. As for the experimental part: The tail suspension test, a model of antidepressant-like activity, is carried out as described (S11) and is a modified version of that validated for C57B16 (S12) and NMRI mice (S13). Mice are individually suspended by the tail to a horizontal bar (distance from floor is 35 cm) using adhesive tape (distance from tip of tail is 2 cm). […] A 6-min test session is videotaped and scored by an observer who is unaware of the genotype. The parameter recorded is the number of seconds spent immobile. In experiments with anpirtoline (5 mg/kg) and imipramine (10 mg/kg), animals are tested 15 minutes postinjection.

For experiment [3], the system named is phospho-Thr202/Tyr204-ERK1/2. The experiment can be described thus: Western blotting of phosphorylated ERK1/2 in primary cortical cultures. As to conditions: primary cortical cultures from p11 KO mice, 10 μM, 15 minutes. It is filed as cell-based. As for the experimental part:
Cortices are removed from E18 mice generated from WT×WT or p11KO×p11KO breedings, trypsinized (0.25%), dissociated by trituration and plated onto poly-L-lysine (1 mg/ml) coated six-well plates. The cultures (500,000 cells/ml) are grown in medium containing DMEM with 5% fetal bovine serum, 4 mM L-glutamine, B-27 nutrient supplement, penicillin (5 U/ml), and streptomycin (5 μg/ml). After two weeks, the cultures are treated with vehicle, serotonin (10 μM) or anpirtoline (10 μM) for 15 minutes. At the end of the treatment, the drug-containing medium is removed, the wells rinsed in ice-cold PBS, the neurons removed by a cell scraper and frozen in liquid nitrogen. Frozen cell samples are sonicated in 1% SDS and boiled for 10 min. Small aliquots of the homogenate are retained for protein determination by the bicinchoninic acid protein assay method. Equal amounts of protein are processed by using 10% acrylamide gels, as described (S10). Immunoblotting is carried out with a phosphorylation-state-specific antibody against phospho-Thr202/Tyr204-ERK1/2 or an antibody that is not phosphorylation-state-specific against total ERK1/2. Antibody binding is detected by enhanced chemiluminescence and quantified by densitometry, using National Institutes of Health IMAGE 1.63 software. The level of the phosphorylated form of ERK1/2 is normalized to its total level. All data are presented as normalized levels.

A further experiment relates to p11. The experiment can be described thus: p11 expression in PBMC of monkeys receiving fluoxetine. It is filed as in vivo.
Experiment [4] concerns the target T3, 5-HT1B receptor (Homo sapiens, UniProt P28222).
T3 construct: V5 (C); expressed in transfected cells; host or cells: COS 7
The experiment can be described thus: cAMP measurements in COS 7 cells. It is filed as cell-based. As for the experimental part: COS 7 cells grown in DMEM medium are transfected with 5-HT1B receptors and/or p11. Thirty six hours later the cells are pretreated with theophylline (5 mM) and pargyline (10 μM) for 15 min. Vehicle or forskolin (10 μM) with or without serotonin (10 μM), is then added for another 15 minutes. At the end of the treatment, the drug-containing medium is removed, the wells rinsed in PBS and the cells harvested. cAMP formation is quantitated by a direct cAMP enzyme immunoassay kit according to the manufacturers instructions.

Experiment [5] has as its target T2, 5-HT1B receptor. In words: Electrophysiology, fEPSP/PS in nucleus accumbens slices, serotonin. As to conditions: slices from WT mice; serotonin 50 μM in the presence of 10 μM fluoxetine. The method, then: as §2

Read-outs that look alike come from different tables or passages of the source.

T2 sequence (P28334 whole entry): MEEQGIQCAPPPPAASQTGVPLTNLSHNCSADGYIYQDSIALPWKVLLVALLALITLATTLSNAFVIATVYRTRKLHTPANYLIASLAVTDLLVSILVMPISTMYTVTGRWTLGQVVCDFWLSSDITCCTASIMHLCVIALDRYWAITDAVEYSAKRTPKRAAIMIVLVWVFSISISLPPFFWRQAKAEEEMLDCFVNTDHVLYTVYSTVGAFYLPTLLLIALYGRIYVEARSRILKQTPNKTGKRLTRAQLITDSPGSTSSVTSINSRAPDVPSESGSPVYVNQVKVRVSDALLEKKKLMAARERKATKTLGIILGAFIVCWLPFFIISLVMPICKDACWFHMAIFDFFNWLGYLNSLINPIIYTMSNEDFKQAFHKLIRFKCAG
T3 sequence (P28222 whole entry): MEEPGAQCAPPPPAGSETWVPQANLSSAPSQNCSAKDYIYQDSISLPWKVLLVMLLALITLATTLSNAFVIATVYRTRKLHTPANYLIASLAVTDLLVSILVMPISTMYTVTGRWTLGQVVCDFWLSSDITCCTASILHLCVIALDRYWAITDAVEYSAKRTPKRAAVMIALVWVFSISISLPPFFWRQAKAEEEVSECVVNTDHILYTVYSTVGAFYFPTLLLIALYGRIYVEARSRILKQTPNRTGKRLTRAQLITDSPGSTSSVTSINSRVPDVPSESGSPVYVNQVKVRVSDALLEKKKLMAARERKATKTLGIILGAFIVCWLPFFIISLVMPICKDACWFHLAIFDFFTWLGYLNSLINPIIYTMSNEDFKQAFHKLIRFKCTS
Experimental for p11 mRNA: For some experiments, brains from p11 KO mice and their wild-type counterparts are used. […] Animals are killed 1 hour after the last injection.
In situ hybridization probes are made by PCR amplification of nucleotides 1159-1420 of the coding sequence of the rat 5-HT1B receptor gene, nucleotides 1-293 of the coding sequence of the mouse or human p11 genes and nucleotides 1-287 of the coding sequence of the rat p11 gene, respectively. The different PCR fragments are subcloned into the pCRII-TOPO vector. With the exception of the studies on human tissue, 12-μm-thick cryostat sections are made for all studies. Sections are hybridized with [□^−35S]UTP-labeled riboprobe repared by in vitro transcription from cDNA corresponding to the rat 5-HT1B receptor gene or mouse, rat or human p11 gene as previously described (S5). After hybridization, the sections are exposed to Biomax MR film for 7 to 24 days and analyzed using the NIH Image 1.63 software. Unless indicated, analyses are made in the prelimbic/anterior cingulate cortex. Some sections are dipped into Ilford K5 emulsion for cellular analysis. After 8 weeks, the sections are developed, Nissl-stained and mounted.

Consider `CCCN(CCC)C1CCc2cccc(O)c2C1` (racemic) [8-OH-DPAT, (+/−)-8-hydroxy-2-(di-n-propylamino)tetralin], for which the “[35S]GTP-S binding” value on 5-HT1A receptor (p11 KO mice) came to 5.0±2.0 optical density units; at 5-HT1A receptor (wild-type mice) it was 6.0±2.1 optical density units.

Consider `N[C@@H]1C[C@H]1c1ccccc1` (racemic) [tranylcypromine], for which the “p11 mRNA in the forebrain” value in the experiment with p11 mRNA is “upregulation of p11 mRNA”.

In the case of `N#Cc1cc2c(cc1[N+](=O)[O-])=NC(=O)C(=O)N=2` [CNQX, 6-cyano-7-nitroquinoxaline-2,3-dione], the figures for the “f EPSP/population spike (PS) reduction compared with baseline” value with AMPA receptors (p11 KO mice) and with AMPA receptors (wild-type mice) were 81% and 77%, respectively.

On to `CC(C)(C)NCC(O)COc1cccc2[nH]c(C#N)c([125I])c12` (centres unmarked) [[^125I]iodocyanopindolol], for which the “binding in substantia nigra pars reticulata” value at 5-HT1B receptor [1] (p11 KO mice) came to 77.3±5.8 fmol/mg protein; on 5-HT1B receptor [1] (wild-type mice), 98.8±6.2 fmol/mg protein.

For `Clc1cccc(SC2CCNCC2)n1` [anpirtoline], the “ability to increase [35S]GTP-S binding in globus pallidus” value on 5-HT1B receptor [2] was “reduced ability”. In addition, the “decrease of phospho-Ser9-synapsin I” value with phospho-Ser9-synapsin I is recorded as “loss of ability”. In the experiment with thigmotaxis, the thigmotaxis entry is listed as “significant reduction in thigmotaxis”. Besides, the “immobility in the tail suspension test” value with immobility was “increased immobility”. The “down-regulation of phospho-Thr202/Tyr204-ERK1/2 levels” value in [3] is “loss of ability”.

`CNCCC(Oc1ccc(C(F)(F)F)cc1)c1ccccc1` (centres unmarked) [fluoxetine]: the “increase in p11 expression in peripheral blood mononuclear cells (PBMC)” value in the experiment with p11 was “more than twofold”.

As to `O=C(CCCN1CCC(O)(c2ccc(Cl)cc2)CC1)c1ccc(F)cc1` [haloperidol], the “p11 mRNA in the forebrain” value in the experiment on p11 mRNA is given as “not”.

Consider `CN(C)CCCN1c2ccccc2CCc2ccccc21` [imipramine], for which the “p11 mRNA in the forebrain” value in the experiment with p11 mRNA is “upregulation of p11 mRNA”. In addition, the “immobility in the tail suspension test” value with immobility is reported as “increased immobility”.

Take `Cc1nc2n(c(=O)c1CCN1CCC(c3noc4cc(F)ccc34)CC1)CCCC2` [risperidone]: the “p11 mRNA in the forebrain” value in the experiment on p11 mRNA is given as “not”.

`NCCc1c[nH]c2ccc(O)cc12` [serotonin, 5-hydroxy-tryptamine]: the “ability to counteract forskolin-induced cAMP formation” value at 5-HT1B receptor [4] (COS-7 cells transfected with the 5-HT1B receptor, in the presence of cotransfected p11, serotonin (10 µM)) is on record as “increased”. Further, the “cAMP formation in untransfected COS 7 cells” value on 5-HT1B receptor [4] (control experiments, untransfected cells) is “does not alter cAMP formation”. Moreover, the EC50 was found to be 52 nM on 5-HT1B receptor [1] and 57 nM at 5-HT1B receptor [1] (median effective concentration (EC50) to displace bound [125I]iodocyanopindolol, wild-type mice, brain sections). Further, the “amplitude of the fEPSP/PS” value at 5-HT1B receptor [5] is reported as “depresses the amplitude”. For the same compound, the “down-regulation of phospho-Thr202/Tyr204-ERK1/2 levels” value in experiment [3] is recorded as “loss of ability”.

One may read the EC50 as the concentration at which the effect is half-maximal. Lower therefore signals higher potency in that assay.

These data come from patent publication US8470548B2, “Diagnosis of depression” (Intra-Cellular Therapies, Inc., priority 2006, dated 2013).
